Test results as given in US20080020421A1, “METHODS OF SCREENING AGENTS FOR CYTOTOXIC AND ANTIMICROBIAL ACTIVITY” (priority 2006, published 2008).

Tests used:
HeLa-GFP cells [1] = assay: Fluorescent microscopy cytotoxicity assay (LD50 determination, FIG. 2); format: cell-based, human; conditions: for approximate LD50 in HeLa-GFP: various concentrations, cell counts under fluorescent microscopy, FIG. 2
Protocol: The concentration of the test compounds (μM) are shown within the figure. Horizontal bar indicates the 50% toxicity range. H2O2 (+control, 1 mM) was used as a positive control (+; 100% cytolysis) while cells treated with DMSO (1 μl; solvent for all quinones) was used as the negative (−) control.
Fluorescent microscopy cytotoxicity assays. HeLa-GFP cells were plated on 24-well plates and left overnight to adhere. Different dilutions of the quinones were then added to each well (indicated in the legend) using the same concentrations of the positive and negative controls as described in the previous assay. Cell counts were done under fluorescent microscopy to determine cytotoxicity. The status of the fluorescent GFP-nuclei and the typical morphological characteristics of cells undergoing cell death were taken into account when differentiating between dying or viable cells as previously described (Montoya et al., 2004).

[2] = system: M. avium-GFP (strain MAC104); assay: Toxicity assay with GFP-expressing M. avium; conditions: for Percent-GFP-fluorescence after incubation with test compounds, M. avium-GFP (20 μg/ml): 18 h incubation, relative to untreated bacteria; for toxicity to M. avium (in words): loss of GFP signal, Table 1 screen
Protocol: (§1) E. coli-GFP cells were grown in LB broth media while the MAC104 M. avium strain was grown in 7H9-ADC media.
(§2) Toxicity assays with GFP-expressing bacteria. E. coli was transformed with a GFP-expression plasmid that also confers tetracycline resistance was kindly provided by Dr. David Schneider (Elrod-Erickson et al., 2000). […] Both bacterial strains were grown and selected based on antibiotic resistance and GFP expression. All toxicity assays were performed using the plates and fluorometric parameters described in the previous section. Bacterial cell suspensions were seeded in a final volume of 100 μl at an optical density of 0.05 and 0.25 at 650 nm, for E. coli-GFP and M. avium-GFP, respectively. After exposure to the test compounds, assay plates were incubated at 37° C. in a humid environment to prevent dehydration in the wells. Unlike the HeLa-GFP assays, reading were performed without removing the supernatants to avoid loss of cells. Several untreated wells containing bacteria and media were used to determine the maximum level of fluorescence. Several wells containing media alone (no bacteria) were included in each assay to remove background fluorescence.
(§3) Data analysis. All compounds, including controls, were screened in triplicate. The average of the three wells that were used for the removal of the background fluorescence (wells containing water for the HeLa-GFP assays and wells containing media alone for bacteria) was subtracted from each individual well. The mean of these triplicate values for each compound was then obtained.

HeLa-GFP cells [3] = assay: HeLa-GFP fluorometric cytotoxicity assay; conditions: for Percent-GFP-fluorescence after incubation with test compounds, HeLa-GFP (2 μg/ml) / Percent-GFP-fluorescence after incubation with test compounds, HeLa-GFP (20 μg/ml): 18 h incubation, relative to untreated (DMSO) cells; for toxicity to HeLa-GFP cells (in words): loss of GFP signal, Table 1 screen
Protocol: Cell culture. HeLa-GFP cells were cultured in DMEM media supplemented with 10% heat-inactivated newborn calf serum as previously described (Montoya et al., 2004). Stock cultures were prewashed twice with PBS before the treatment of trypsin for cell resuspension and subsequently re-plated at the concentration of 4,000 cells/well.
HeLa-GFP fluorometric cytotoxicity assay. All cell lines were seeded in clear-bottomed 96-well assay plates (3603, Costar, Corning Inc., Corning, N.Y.) in order to minimized background fluorescence. HeLa cells were grown in a total volume of 0.2 ml of medium and incubated overnight for proper cell attachment. The quinone compounds were then added to each well (in triplicate) and then incubated for a period of 18 hr. For the determination of fluorescence, the assay plates were then read using the Fluoroskan Ascent F1 fluorometer (Thermo Electron Corp.) set at the excitation and emission parameters of 485 and 518 nm, respectively. Since the HeLa-GFP cell line is adherent, the fluorometer was set to read from the bottom of the plate for closer proximity to the cells. Before the readings were performed, all supernatant media was removed to avoid any background interference and thus enhancing the sensitivity of the optical readings. For calibration purposes, three untreated control wells were used to determine the maximum level of fluorescence (100%). […] As a cytolysis control (complete loss of fluorescence), three wells containing cells were exposed to 0.2 ml of deionized water. These controls were then used to calculate the percent loss of GFP signal after compound exposure as determined by comparison with control wells containing cells that were not exposed to the chemical agent (see data analysis below).
Data analysis. All compounds, including controls, were screened in triplicate. The average of the three wells that were used for the removal of the background fluorescence (wells containing water for the HeLa-GFP assays and wells containing media alone for bacteria) was subtracted from each individual well. The mean of these triplicate values for each compound was then obtained. These mean values were then divided by the average obtained for maximum fluorescence (cells not treated with compound) and then multiplied by 100 to obtain the percentage values as shown in Table 1.

E. coli-GFP = assay: Toxicity assay with GFP-expressing E. coli; conditions: for Percent-GFP-fluorescence after incubation with test compounds, E. coli-GFP (20 μg/ml): 10 h incubation, relative to untreated bacteria; for toxicity to E. coli (in words): loss of GFP signal, Table 1 screen
Protocol: as §1, §2, §3

Row | SMILES | cytolysis (positive control) (HeLa-GFP cells [1]; 1 mM, HeLa-GFP) [%] | approximate LD50 in HeLa-GFP (HeLa-GFP cells [1]) [µM] | Percent-GFP-fluorescence after incubation with test compounds, M. avium-GFP (20 μg/ml) [2] [%] | toxicity to M. avium (in words) [2] | toxicity to M. avium (in words) ([2]; listed as Plumbagin) | Percent-GFP-fluorescence after incubation with test compounds, HeLa-GFP (2 μg/ml) (HeLa-GFP cells [3]) [%] | Percent-GFP-fluorescence after incubation with test compounds, HeLa-GFP (20 μg/ml) (HeLa-GFP cells [3]) [%] | toxicity to HeLa-GFP cells (in words) (HeLa-GFP cells [3]) | toxicity to HeLa-GFP cells (in words) (HeLa-GFP cells [3]; listed as Plumbagin) | Percent-GFP-fluorescence after incubation with test compounds, E. coli-GFP (20 μg/ml) (E. coli-GFP) [%] | toxicity to E. coli (in words) (E. coli-GFP) | toxicity to E. coli (in words) (E. coli-GFP; listed as Plumbagin)
1 | OO [Compound H2O2, H2O2] | 100 |  |  |  |  |  |  |  |  |  |  | 
2 | CC1=CC(=O)c2c(O)cccc2C1=O [Compound Q1, plumbagin, reference compound] |  | ~3.0 | 7.0 | most toxic | most toxic to M. avium | 13.0 | 9.0 | most toxic | third-most toxic to HeLa cells | 1.0 | most toxic | most toxic compound to E. coli
3 | O=C1C=CC(=O)c2c(O)ccc(O)c21 [Compound Q3, naphthazarin, reference compound] |  | ~3.0 | 38.0 | highly toxic |  | 0 | 4.0 | highly toxic |  | 41.0 | highly toxic | 
4 | CCOC(=O)C1=C(CC)C(=O)c2ccccc2C1=O [Compound Q15] |  |  | 40.0 |  |  | 85.0 | 53.0 |  |  | 80.0 |  | 
5 | CCCC1=CC(=O)c2c(OC)cccc2C1=O [Compound Q16] |  |  | 105.0 |  |  | 78.0 | 10.0 |  |  | 127.0 |  | 
6 | CCCCCCC1=CC(=O)c2c(OC)cccc2C1=O [Compound Q17] |  |  | 100.0 |  |  | 80.0 | 18.0 |  |  | 115.0 |  | 
7 | CCCCCCCC1=CC(=O)c2c(OC)cccc2C1=O [Compound Q18] |  |  | 127.0 |  |  | 88.0 | 22.0 |  |  | 112.0 |  | 
8 | CCCC1=C(CCC)C(=O)c2c(OC)cccc2C1=O [Compound Q19] |  |  | 73.0 |  |  | 78.0 | 38.0 |  |  | 99.0 |  | 
9 | O=C1c2ccccc2C(=O)C2(c3ccccc3)OC12c1ccccc1 (stereo not drawn) [Compound Q20] |  |  | 77.0 |  |  | 28.0 | 29.0 |  |  | 86.0 |  | 
10 | CC12OC1(c1ccccc1)C(=O)c1ccccc1C2=O (stereo not drawn) [Compound Q21] |  |  | 57.0 |  |  | 57.0 | 23.0 |  |  | 122.0 |  | 
11 | CCCCC12OC1(c1ccccc1)C(=O)c1ccccc1C2=O (stereo not drawn) [Compound Q22] |  |  | 91.0 |  |  | 75.0 | 14.0 |  |  | 110.0 |  | 
12 | CCCCC12OC1C(=O)c1ccccc1C2=O (stereo not drawn) [Compound Q24] |  |  | 202.0 |  |  | 5.0 | 23.0 |  |  | 87.0 |  | 
13 | CCCC12OC1(CCC)C(=O)c1ccccc1C2=O (stereo not drawn) [Compound Q26] |  |  | 97.0 |  |  | 26.0 | 27.0 |  |  | 110.0 |  | 
14 | CCCC12OC1(CC)C(=O)c1ccccc1C2=O (stereo not drawn) [Compound Q27] |  |  | 133.0 |  |  | 21.0 | 21.0 |  |  | 117.0 |  | 
15 | CCOC(=O)C12OC1(CC)C(=O)c1ccccc1C2=O (stereo not drawn) [Compound Q28] |  |  | 97.0 |  |  | 17.0 | 4.0 |  |  | 115.0 |  | 
16 | COc1ccc(CC(=O)n2nnc(C3=C(CO)C(=O)c4ccccc4C3=O)c2CO)cc1 [Compound Q30] |  |  | 96.0 |  |  | 84.0 | 47.0 |  |  | 105.0 |  | 
17 | C[Si](C)(C)n1nnc(C2=C(CO)C(=O)c3ccccc3C2=O)c1CO [Compound Q31] |  |  | 94.0 |  |  | 88.0 | 82.0 |  |  | 107.0 |  | 
18 | COC(=O)c1ccccc1C1=C(CNC(=O)OC(C)(C)C)C(=O)c2ccccc2C1=O [Compound Q32] |  |  | 80.0 |  |  | 88.0 | 57.0 |  |  | 99.0 |  | 
19 | COC(=O)c1ccccc1C1=C(CN(C(=O)OC(C)(C)C)C(=O)OC(C)(C)C)C(=O)c2ccccc2C1=O [Compound Q33] |  |  | 74.0 |  |  | 88.0 | 62.0 |  |  | 102.0 |  | 
20 | CCOC(=O)c1ccccc1C1=C(CNC(=O)OC(C)(C)C)C(=O)c2ccccc2C1=O [Compound Q34] |  |  | 64.0 |  |  | 86.0 | 49.0 |  |  | 87.0 |  | 
21 | CCOC(=O)c1ccccc1C1=C(CN(C(=O)OC(C)(C)C)C(=O)OC(C)(C)C)C(=O)c2ccccc2C1=O [Compound Q35] |  |  | 108.0 |  |  | 85.0 | 58.0 |  |  | 104.0 |  | 
22 | CCOC(=O)c1cccc(C2=C(CNC(=O)OC(C)(C)C)C(=O)c3ccccc3C2=O)c1 [Compound Q36] |  |  | 93.0 |  |  | 89.0 | 59.0 |  |  | 100.0 |  | 
23 | CCOC(=O)c1cccc(C2=C(CN(C(=O)OC(C)(C)C)C(=O)OC(C)(C)C)C(=O)c3ccccc3C2=O)c1 [Compound Q37] |  |  | 92.0 |  |  | 90.0 | 62.0 |  |  | 105.0 |  | 
24 | CCOC(=O)c1ccc(C2=C(CNC(=O)OC(C)(C)C)C(=O)c3ccccc3C2=O)cc1 [Compound Q38] |  |  | 119.0 |  |  | 81.0 | 61.0 |  |  | 103.0 |  | 
25 | CCOC(=O)c1ccc(C2=C(CN(C(=O)OC(C)(C)C)C(=O)OC(C)(C)C)C(=O)c3ccccc3C2=O)cc1 [Compound Q39] |  |  | 96.0 |  |  | 88.0 | 62.0 |  |  | 108.0 |  | 
